Eleven molecules from patent US7863465B2, “Antifungal agents” (Merck Sharp & Dohme Corp., priority 2006, dated 2011) can be followed below.

pIC50: −log10 of the molar value. Structures can show the parent of a compound that is named as a salt.

T1 sequence (O13428 1-1897): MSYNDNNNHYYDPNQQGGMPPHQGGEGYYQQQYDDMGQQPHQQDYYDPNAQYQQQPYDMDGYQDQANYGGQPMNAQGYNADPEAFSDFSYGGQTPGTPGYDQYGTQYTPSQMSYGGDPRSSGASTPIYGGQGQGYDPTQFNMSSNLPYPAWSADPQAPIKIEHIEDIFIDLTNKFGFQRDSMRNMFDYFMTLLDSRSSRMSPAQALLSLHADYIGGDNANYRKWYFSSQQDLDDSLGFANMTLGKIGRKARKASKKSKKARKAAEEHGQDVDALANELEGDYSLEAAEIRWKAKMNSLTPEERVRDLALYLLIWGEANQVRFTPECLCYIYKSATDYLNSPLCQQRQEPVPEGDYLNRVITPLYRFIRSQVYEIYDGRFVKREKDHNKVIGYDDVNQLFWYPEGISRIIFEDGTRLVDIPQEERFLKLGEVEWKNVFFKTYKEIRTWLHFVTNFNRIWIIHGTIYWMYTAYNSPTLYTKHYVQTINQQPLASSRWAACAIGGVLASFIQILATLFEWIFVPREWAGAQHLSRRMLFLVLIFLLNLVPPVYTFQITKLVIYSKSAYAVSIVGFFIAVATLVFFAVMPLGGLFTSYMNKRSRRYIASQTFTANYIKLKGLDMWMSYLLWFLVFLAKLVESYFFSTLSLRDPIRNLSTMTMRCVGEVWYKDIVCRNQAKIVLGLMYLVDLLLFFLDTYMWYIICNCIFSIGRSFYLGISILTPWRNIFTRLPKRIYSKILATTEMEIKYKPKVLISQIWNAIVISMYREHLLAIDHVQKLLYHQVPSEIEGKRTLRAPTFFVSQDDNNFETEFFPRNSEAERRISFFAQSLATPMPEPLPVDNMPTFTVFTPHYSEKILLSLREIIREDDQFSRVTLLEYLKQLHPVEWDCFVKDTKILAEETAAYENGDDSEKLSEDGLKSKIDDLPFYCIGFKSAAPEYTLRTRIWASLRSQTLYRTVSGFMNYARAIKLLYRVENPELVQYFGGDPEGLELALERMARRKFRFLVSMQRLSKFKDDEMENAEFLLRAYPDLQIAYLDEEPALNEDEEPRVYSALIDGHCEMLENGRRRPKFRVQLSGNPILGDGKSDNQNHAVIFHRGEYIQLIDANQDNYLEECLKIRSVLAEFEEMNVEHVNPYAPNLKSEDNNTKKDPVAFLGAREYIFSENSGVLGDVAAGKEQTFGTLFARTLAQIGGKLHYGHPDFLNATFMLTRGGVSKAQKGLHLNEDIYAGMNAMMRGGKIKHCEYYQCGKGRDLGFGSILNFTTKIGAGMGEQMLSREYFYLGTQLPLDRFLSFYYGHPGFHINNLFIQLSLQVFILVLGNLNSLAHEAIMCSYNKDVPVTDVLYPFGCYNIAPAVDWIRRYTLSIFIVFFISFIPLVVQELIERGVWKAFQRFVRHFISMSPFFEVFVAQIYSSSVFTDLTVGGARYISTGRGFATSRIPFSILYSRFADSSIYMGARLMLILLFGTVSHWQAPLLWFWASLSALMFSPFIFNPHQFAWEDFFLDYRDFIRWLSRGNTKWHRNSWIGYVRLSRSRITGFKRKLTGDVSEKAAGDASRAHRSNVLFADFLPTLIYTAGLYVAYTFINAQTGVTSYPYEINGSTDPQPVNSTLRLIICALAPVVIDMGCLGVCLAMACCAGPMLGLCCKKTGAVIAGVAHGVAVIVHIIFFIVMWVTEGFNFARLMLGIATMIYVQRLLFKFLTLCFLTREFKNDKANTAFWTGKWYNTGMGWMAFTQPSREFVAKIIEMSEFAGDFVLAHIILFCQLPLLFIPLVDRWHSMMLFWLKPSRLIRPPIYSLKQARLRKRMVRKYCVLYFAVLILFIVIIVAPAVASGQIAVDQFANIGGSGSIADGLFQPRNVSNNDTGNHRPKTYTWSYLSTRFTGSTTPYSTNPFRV
T1 sequence (O42825 whole entry partner): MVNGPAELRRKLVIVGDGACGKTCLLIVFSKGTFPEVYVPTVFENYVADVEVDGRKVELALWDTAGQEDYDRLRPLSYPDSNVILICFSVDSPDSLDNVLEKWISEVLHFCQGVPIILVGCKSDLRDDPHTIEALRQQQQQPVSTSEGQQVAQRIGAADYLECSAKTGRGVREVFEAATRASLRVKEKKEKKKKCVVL

The assay addresses T1, glucan synthase (GS) prepared from Candida albicans MY1055 (Candida albicans, UniProt O13428).
T1 construct: Extraction of GS activity from membranes was performed at a protein concentration of 5 mg/mL in extraction buffer; endogenous in cells; host or cells: Candida albicans MY1055 (membranes, detergent extract, product entrapment)
Put plainly: Glucan synthase inhibition (polymerization assay, 96-well, 3H-UDPG incorporation). Type of assay: biochemical. To be noted: glucan synthase from C. albicans MY1055. As for the experimental part: The in vitro evaluation of glucan synthase inhibitory activity of compounds was measured in a polymerization assay in 96-well format. Each well contained 100 μL of ^3H-UDPG at 0.5 mM (6000 to 8000 dpm/nmol), 50 mM HEPES pH 7.5 (Sigma), 10% w/v glycerol (Sigma), 1.5 mg/mL bovine serum albumin (Sigma A 9647. Lot 44H0190), 25 mM KF (Fisher), 1 mM EDTA (Gibco Ultrapure), 25 μM GTP-γ-S, enzyme sufficient to give 3 to 6 nmoles incorporation during the 60 min incubation at 22° C., and test compound added from wells in 3-fold serial dilutions in 100% DMSO (1 μL/well). The reaction was stopped by the addition of 100 μL of 20% trichloroacetic acid. Plates were chilled for a minimum of 10 min, and precipitated glucan collected by filtration on GF/C plates (Packard Unifilter®-96), washed with 5 cycles of water (about 1 mL/well each cycle) using a Packard Filtermate Harvester. 40 μL/well scintillation fluid (Packard Ultima Gold TM-XR) was added and the sealed plates counted in a Wallac Beta counter in top-counting mode at an efficiency of approximately 40%.
Stock solutions were stored at 10 mg/mL in DMSO at −20° C. For each new enzyme preparation, the initial titration performed started at 1 mg/mL, which was prepared by making a 10-fold dilution in DMSO (5 μL to 50 μL). 40 μL of this stock was placed in column 12 of a round-bottomed 96-well microtiter plate. 40 μL DMSO was added to columns 1 to 11 in the same row and ten 3-fold serial dilutions performed, by transferring 20 μL from column 12 to column 11 etc., with 4 mixings before each transfer. No test compound was transferred to from column 2 to column 1. Duplicate aliquots of 1 μL of all 12 dilutions were then transferred to the side walls of a 96-well Bioblock 1.1 mL plate (Fisherbrand) to create two rows.
The results were tabulated and a standard plate background was subtracted and the net count transpose-pasted into a Prism file, with final compound concentrations used in ng/mL. Graphs were created in Prism software, using the average of two determinations, and using Prism's curve fitting program (sigmoidal dose response non-linear regression).
Routine analysis was performed with glucan synthase (GS) prepared from Candida albicans MY1055 by the following procedure: MY1055 was grown in 10 liters YPD medium (10 g yeast extract, 20 g tryptone, 20 g glucose per liter) with vigorous shaking at 30° C., to early stationary phase. Cells were harvested by centrifugation, the pellet was washed and frozen at −70° C. until breakage. Thawed pellets were shaken with an equal volume of breakage buffer (50 mM HEPES pH 7.4, 10% glycerol, 1 mM EDTA, 1 mM PMSF, 1 mM DTT) and 4 times their weight of 0.5 mm acid washed glass beads for 2 hours at 4° C. Extent of breakage was assessed visually at 40× magnification. For C. parapsilosis strains, shaking was extended to 3 hours to maximize breakage. After low speed centrifugation to remove cell debris, the supernatant was centrifuged at 100,000×g for 60 min. to separate membranes plus ribosomes from cytoplasmic components. Membranes were further washed two additional times with breakage buffer using the same centrifugation conditions and finally suspended in breakage buffer at 25 to 30 mg/mL protein (Biorad) for storage at −70° C. Extraction of GS activity from membranes was performed at a protein concentration of 5 mg/mL in extraction buffer (50 mM NaPO4 pH 7.5, 0.1 M KCl, 0.1M Na citrate, 20% glycerol, 5 μM GTP-γ-S, 1 mM DTT, 1 mM PMSF, 3 μg/mL pepstatin) plus 0.25% W1 by gentle mixing at 4° C. for 60 min, followed by centrifugation at 100,000×g for 60 min. After centrifugation, clear supernatant was removed from a pellet consisting of a hard layer usually with small amounts of gelatinous unextracted membranes above it. […]
Regarding `CC(=O)O[C@@H]1C[C@@]23COC[C@](C)(C2CC[C@H]2C3=CC[C@@]3(C)[C@H](C(=O)O)[C@@](C)([C@H](C)C(C)C)CC[C@]23C)[C@H]1OCC(C)N` (stereo partly drawn) [Example 2, (1S,2R,3R,4aR,6aS,7R,8R,10aR,10bR,12aR)-3-(Acetyloxy)-2-(2-aminopropoxy)-8-[(1R)-1,2-dimethylpropyl]-1,6a,8,10a-tetramethyl-1,3,4,6,6a,7,8,9,10,10a,10b,11,12,12a-tetradecahydro-2H-1,4a-(methanooxymethano)chrysene-7-carboxylic acid], the pIC50 was 7.41.
Take `CC(=O)O[C@@H]1C[C@@]23COC[C@](C)([C@@H]2CC[C@H]2C3=CC(=O)[C@@]3(C)[C@H](C(=O)O)[C@@](C)([C@H](C)C(C)C)CC[C@]23C)[C@H]1OCCNC(=N)N` [Example 48, (1S,2R,3R,4aR,6aS,7R,8R,10aR,10bR,12aR)-3-(acetyloxy)-2-(2-guanidinoethoxy)-8-[(1R)-1,2-dimethylpropyl]-1,6a,8,10a-tetramethyl-6-oxo-1,3,4,6,6a,7,8,9,10,10a,10b,11,12,12a-tetradecahydro-2H-1,4a-(methanooxymethano)chrysene-7-carboxylic acid]: the pIC50 was 7.54.
In the case of `CN[C@@](C)(CO[C@H]1[C@H](OC(C)=O)C[C@@]23COC[C@]1(C)[C@@H]2CC[C@H]1C3=CC(=O)[C@@]2(C)[C@H](C(=O)O)[C@@](C)([C@H](C)C(C)C)CC[C@]12C)C(C)C` [Example 152, (1S,2R,3R,4aR,6aS,7R,8R,10aR,10bR,12aR)-3-acetoxy-2-[[(2R)-2-methylamino-2,3-dimethylbutyl]oxy]-8-[(1R)-1,2-dimethylpropyl]-1,6a,8,10a-tetramethyl-6-oxo-1,3,4,6,6a,7,8,9,10,10a,10b,11,12,12a-tetradecahydro-2H-1,4a-(methanooxymethano)chrysene-7-carboxylic acid (fumaric acid salt)], the pIC50 is 7.86.
Next, `CC(=O)O[C@@H]1C[C@@]23COC[C@](C)([C@@H]2CC[C@H]2C3=CC[C@@]3(C)[C@H](C(=O)O)[C@@](C)([C@H](C)C(C)C)CC[C@]23C)[C@H]1OCCNC(=N)N` [Example 6, (1S,2R,3R,4aR,6aS,7R,8R,10aR,10bR,12aR)-3-(acetyloxy)-2-(2-guanidino-ethoxy)-8-[(1R)-1,2-dimethylpropyl]-1,6a,8,10a-tetramethyl-1,3,4,6,6a,7,8,9,10,10a,10b, 11,12,12a-tetradecahydro-2H-1,4a-(methanooxymethano)chrysene-7-carboxylic acid]: 7.71; `CC(=O)O[C@@H]1C[C@@]23COC[C@](C)([C@@H]2CC[C@H]2C3=CC(=O)[C@@]3(C)[C@H](C(=O)O)[C@@](C)([C@H](C)C(C)C)CC[C@]23C)[C@H]1OC[C@@](C)(C(C)C)N(C)C` [Example 153, (1S,2R,3R,4aR,6aS,7R,8R,10aR,10bR,12aR)-3-acetoxy-2-[[(2R)-2-dimethylamino-2,3-dimethylbutyl]oxy]-8-[(1R)-1,2-dimethylpropyl]-1,6a,8,10a-tetramethyl-6-oxo-1,3,4,6,6a,7,8,9,10,10a,10b,11,12,12a-tetradecahydro-2H-1,4a-(methanooxymethano)chrysene-7-carboxylic acid (fumaric acid salt)]: 7.57.
Turning to `CC(=O)O[C@@H]1C[C@@]23COC[C@](C)(C2CC[C@H]2C3=CC[C@@]3(C)[C@H](C(=O)O)[C@@](C)([C@H](C)C(C)C)CC[C@]23C)[C@H]1OCCCCN` (stereo partly drawn) [Example 40, (1S,2R,3R,4aR,6aS,7R,8R,10aR,10bR,12aR)-3-(acetyloxy)-2-(4-aminobutoxy)-8-[(1R)-1,2-dimethylpropyl]-1,6a,8,10a-tetramethyl-1,3,4,6,6a,7,8,9,10,10a,10b,11,12,12a-tetradecahydro-2H-1,4a-(methanooxymethano)chrysene-7-carboxylic acid], the pIC50 was 7.29.
With `CC(=O)O[C@@H]1C[C@@]23COC[C@](C)([C@@H]2CC[C@H]2C3=CC[C@@]3(C)[C@H](C(=O)O)[C@@](C)([C@H](C)C(C)C)CC[C@]23C)[C@H]1OCCNCCCN` [Example 8, (1S,2R,3R,4aR,6aS,7R,8R,10aR,10bR,12aR)-3-(acetyloxy)-2-[2-(3-aminopropylamino)-ethoxy]-8-[(1R)-1,2-dimethylpropyl]-1,6a,8,10a-tetramethyl-1,3,4,6,6a,7,8,9,10,10a,10b,11,12,12a-tetradecahydro-2H-1,4a-(methanooxymethano)chrysene-7-carboxylic acid], the pIC50 is 7.60.
`CC(=O)O[C@@H]1C[C@@]23COC[C@](C)([C@@H]2CC[C@H]2C3=CC(=O)[C@@]3(C)[C@H](C(=O)O)[C@@](C)([C@H](C)C(C)C)CC[C@]23C)[C@H]1OCCN` [Example 47, (1S,2R,3R,4aR,6aS,7R,8R,10aR,10bR,12aR)-3-(acetyloxy)-2-(2-aminoethoxy)-8-[(1R)-1,2-dimethylpropyl]-1,6a,8,10a-tetramethyl-6-oxo-1,3,4,6,6a,7,8,9,10,10a,10b,11,12,12a-tetradecahydro-2H-1,4a-(methanooxymethano)chrysene-7-carboxylic acid] showed a negative logarithm of the IC50 (pIC50) of 7.11.
The same measure for `CC(=O)O[C@@H]1C[C@@]23COC[C@](C)([C@@H]2CC[C@H]2C3=CC(=O)[C@@]3(C)[C@H](C(=O)O)[C@@](C)([C@H](C)C(C)C)CC[C@]23C)[C@H]1OCC(C(C)C)N1CCCCC1` (stereo partly drawn) [Example 89, (1S, 2R, 3R, 4aR, 6aS, 7R, 8R, 10aR, 10bR, 12aR)-3-(acetyloxy)-2-(3-methyl-2-piperidin-1-ylbutoxy)-8-[(1R)-1,2-dimethylpropyl]-1,6a,8, 10a-tetramethyl-6-oxo-1,3,4,6,6a,7,8,9,10,10a, 10b,11,12,12a-tetra decahydro-2H-1,4a-(methanooxymethano) chrysene-7-carboxylic acid]: 6.78; for `CC(=O)O[C@@H]1C[C@@]23COC[C@](C)([C@@H]2CC[C@H]2C3=CC(=O)[C@@]3(C)[C@H](C(=O)O)[C@@](C)([C@H](C)C(C)C)CC[C@]23C)[C@H]1OC[C@](C)(N)C(C)C` [Example 151, (1S,2R,3R,4aR,6aS,7R,8R,10aR,10bR,12aR)-3-acetoxy-2-[[(2R)-2-amino-2,3-dimethylbutyl]oxy]-8-[(1R)-1,2-dimethylpropyl]-1,6a,8,10a-tetramethyl-6-oxo-1,3,4,6,6a,7,8,9,10,10a,10b,11,12,12a-tetradecahydro-2H-1,4a-(methanooxymethano)chrysene-7-carboxylic acid (fumaric acid salt)]: 7.77; for `CC(=O)O[C@@H]1C[C@@]23COC[C@](C)([C@@H]2CC[C@H]2C3=CC[C@@]3(C)[C@H](C(=O)O)[C@@](C)([C@H](C)C(C)C)CC[C@]23C)[C@H]1OCCNC(=O)C(N)CN` (stereo partly drawn) [Example 5, (1S,2R,3R,4aR,6aS,7R,8R,10aR,10bR,12aR)-3-(acetyloxy)-2-[2-(2,3-diaminopropionylamino)-ethoxy]-8-[(1R)-1,2-dimethylpropyl]-1,6a,8,10a-tetramethyl-1,3,4,6,6a,7,8,9,10,10a,10b,11,12,12a-tetradecahydro-2H-1,4a-(methanooxymethano)chrysene-7-carboxylic acid]: 6.90.
